Patent US8034242B2, “Dialysis device” (Linden Technologies, Inc., priority 2004, dated 2011)

Test system: plasma protein
Type: in vitro ADME, dog
Protocol: One dialysis device was used in an equilibrium dialysis study to measure plasma protein binding of warfarin. A 0.1 M warfarin solution was prepared by dissolving 0.154 g of warfarin in 5 ml of phosphate buffered salts (PBS). The pH was adjusted with 400 Tl of 6 M NaOH to a final volume of 5.761 ml and a final concentration of 86.8 mM. The warfarin solution was then diluted to 1 mM before adding to the plasma solution. 2.2 Tl of 1 mM warfarin was added to 2.2 ml plasma to make 1 TM final concentration of warfarin in the plasma. 1 ml of the warfarin-containing dog plasma was added inside the cylindrical membrane of each dialysis device and 1 ml of PBS to outside of the membrane. The filled device was placed in a 37° C. incubator with gentle shaking 100 Tl samples were withdrawn separately from the plasma and the buffer chambers at 0.5, 1, 2, 3, and 4 h intervals. To the plasma sample was added 100 μl of blank buffer. To the buffer sample was added 100 μl of blank plasma. After mixing, 50 μl of the plasma sample was withdrawn. To the plasma sample (50 μl) was added 450 μl of 1:1 ratio of plasma/buffer solution to make a 10-fold dilution. The sample from the buffer was not diluted. 200 μl acetonitrile was added to 200 μl each of the samples from plasma and the buffer. The mixtures were vortexed and then centrifuged at 13,000 rpm for 3 min. The resulting extracts were analyzed using an API-40003 LC/MS/MS system (Applied Biosciences/MDS SCIEX). […] The experiment was conducted in duplicate.

## CC(=O)CC(c1ccccc1)c1c(O)c2ccccc2oc1=O (stereo not drawn) [warfarin]
  consistency of equilibrium curve (time to equilibrium): ≤ 1 h
  dialysis reached equilibrium state (time): ≤ 30 min
dog, 1 µM
  ratio of protein binding: ~99%
